Key:
[1] = system: gastric ulcers, provoked in a rat by tying of the pylorus (Shay ulcers); test: Antiulcerous: reduction of Shay ulcers (tying of the pylorus); type: in vivo; conditions: 50 mg/Kg/i.d.
Protocol: The compounds of formula (I) administered by intraduodenal means reduce the extent of gastric ulcers, provoked in a rat by tying of the pylorus (Shay ulcers).
By way of example, there is listed in the following Table IX, the results obtained by the administrations of 50 mg/Kg/i.d. of different compounds of formula (I).

[2] = system: rat suffering from high blood pressure; test: Antihypertensive: return of systolic arterial pressure to normal in rats with high blood pressure; type: in vivo
Description: The compounds of formula (I), administered by oral means to a rat suffering from high blood pressure, are capable of lowering the systolic arteriel pressure.
By way of example, there is provided in the following Table IV the results obtained by administration of different compounds of formula (I).

[3] = system: oedema caused by the sub-plantar injection of carraghenin; test: Antiinflammatory: reduction of sub-plantar oedema caused by carraghenin, rat; type: in vivo; conditions: 100 mg/Kg/p.o.
Protocol: These properties are shown by a diminution of the local oedema caused by the sub-plantar injection of a phlogogenic agent, such as carraghenin, in the rat following the oral administration of compounds of formula (I).
The following Table VI lists, by way of example, the percentage reduction of the oedems caused by the sub-plantar injection of carraghenin, resulting from the administration of 100 mg/Kg/p.o. of different compounds of formula (I).

[4] = system: bronchoconstriction provoked in the guinea-pig by acetylcholine; test: Antibronchoconstrictive and anticholinergic: bronchoconstriction by intravenous acetylcholine, Konzett method; type: in vivo
Description: Injected by intraveinous or intraduodenal means, the compounds of formula (I) are capable of opposing the bronchoconstriction provoked in the guinea-pig by the itraveinous injection of acetylcholine by the Konzett method.
By way of example, the following Table VII lists the results obtained by the administration of different compounds of formula (I)

[5] = Lethal doses / percentage mortality, oral; type: in vivo; conditions: 2 000 mg/Kg/p.o., 2000 mg/kg
Description: As a result of a comparison between the pharmacologically active doses mentioned above and the lethal doses listed in the following Table XII, the difference between said doses is sufficiently great to permit the utilisation of the compounds of formula (I) in therapeutics.

[6] = system: ventricular fibrillations provoked by the inhalation of chloroform; test: Antiarythmic: protection against ventricular fibrillations provoked by inhalation of chloroform; type: in vivo; conditions: i.p., mouse
Description: Administered by intraperitoneal means, the compounds of formula (I) are capable of protecting the mouse against the ventricular fibrillations provoked by the inhalation of chloroform.

[7] = system: isolated heart of a guinea-pig; test: Vasodilatatory: coronary flow of isolated heart; conditions: 1 μg/ml in perfusion liquid
Protocol: The compounds of formula (I) are capable of augmenting the flow of the coronary vessels of the isolated heart of a guinea-pig when said compounds are added in the perfusion liquid of said organ.
By way of example, there can be found in the following Table X, the percentage augmentation of the flow of the isolated heart of a guinea-pig by adding different compounds of formula (I) to the perfusion liquid, in a concentration of 1 μg/ml.

[8] = system: explorations in the escape enclosure; test: Sedative: reduction of number of explorations in the escape enclosure; type: in vivo; conditions: 100 mg/Kg/p.o., mouse
Protocol: The compounds of formula (I), administered by oral means to the mouse, reduce the number of explorations in the escape enclosure.
By way of example, the following Table VIII lists the results obtained by the administration of 100 mg/Kg/p.o. of different compounds of formula (I).

[9] = system: gastric secretion measured after Shay ligature; test: Gastric antisecretory: reduction of gastric secretion after Shay ligature, rat; type: in vivo; conditions: 50 mg/Kg/i.d.
Protocol: Administered by intraduodenal means to a rat, the compounds of formula (I) are capable of reducing the gastric secretion measured after Shay ligature.
By way of example, the following Table V gives the results obtained by administration of 50 mg/Kg/i.d. of different compounds of formula (I).

[10] = system: painful stretchings caused by the intraperitoneal injection of acetic acid; test: Analgesic: reduction of painful stretchings caused by intraperitoneal acetic acid, oral, mouse; type: in vivo; conditions: 100 mg/Kg/p.o.
Protocol: The compounds of formula (I), administered by oral means to the mouse, are capable of reducing the number of painful stretchings caused by the intraperitoneal injection of acetic acid.
By way of example, the following Table III lists the results obtained by administration of 100 mg/Kg/p.o. of different compounds of formula (I).

[11] = system: volume of urine emitted; test: Diuretic: augmentation of urinary elimination; type: in vivo; conditions: 25 mg/Kg/p.o., mouse, 6 hours
Protocol: The compounds of formula (I), administered by oral means to the mouse, simultaneously with a volume of 1 ml. of an isotonic solution of sodium chloride per 25 g of the corporeal weight of the mouse, are capable of provoking an augmentation of the volume of urine emitted by reference to control animals, the volume being measured for 6 hours following administration.
By way of example, the following Table XI lists the results obtained by the administration of 25 mg/Kg/p.o. of different compounds of formula (I).

[12] = system: isolated duodenum of the rat; test: Spasmolytic: opposing barium chloride contraction of isolated duodenum; conditions: papaverine as standard
Protocol: The compounds of formula (I), introduced in the conserving medium are capable of opposing the contractural action of barium chloride on the isolated duodenum of the rat. This activity is evaluated by taking papaverine as standard.

[13] = system: excursions into the escape enclosure; test: Central nervous system stimulation: excursions in the escape test; type: in vivo; conditions: 100 mg/Kg/p.o., mouse
Protocol: The compounds of formula (I), administered by oral means to the mouse, provoke an augmentation of the number of excursions into the escape enclosure.
Thus, following the administration of 100 mg/Kg/p.o. of the compounds of Code Nos. 72 457 and 72 736, an augmentation of 30% in the number of excursions in the escape test, is observed.

O=C(CCn1c(CN2CCOCC2)nc2ccccc21)c1ccc(F)cc1.O=C(O)/C=C\C(=O)O [72 526]
Percentage reduction of Shay ulcers [1]: 40%
Percentage of rats with high blood pressure whose systolic arteriel pressure is returned to normal ([2]; 100 mg/Kg/p.o.): 75%
Percentage reduction of sub-plantar oedema [3]: 55%
Percentage inhibition of bronchoconstriction ([4]; 100 mg/kg/i.d.): 75%

CN(C)Cc1nc2ccccc2n1CCC(=O)c1ccc(Cl)cc1 [72 479]
Percentage mortality [5]: 0%
Percentage reduction of Shay ulcers [1]: 30%
Percentage of rats with high blood pressure whose systolic arteriel pressure is returned to normal ([2]; 200 mg/Kg/p.o.): 50%
DE 50 [6]: 200 mg/Kg/i.p.
Percentage augmentations of flow of isolated heart of a guinea-pig [7]: 80%

COc1ccc(C(=O)CCn2c(CN3CCCCC3)nc3ccccc32)cc1OC [72 377]
Percentage reduction of number of explorations in the escape enclosure [8]: 30%
Percentage mortality [5]: 0%
Percentage reduction of Shay ulcers [1]: 55%

Cc1ccc(C(=O)CCn2c(CN(C)C)nc3ccccc32)c(C)c1 [72 712]
Percentage reduction of number of explorations in the escape enclosure [8]: 40%
Percentage mortality [5]: 0%
Percentage reduction of Shay ulcers [1]: 55%
Percentage reduction of sub-plantar oedema [3]: 70%

O=C(CCn1c(CN2CCCC2)nc2ccccc21)c1ccccc1 [72 493]
Percentage reductions in volume of gastric secretion [9]: 25%

O=C(CCn1c(CN2CCOCC2)nc2ccccc21)c1ccccc1 [72 494]
mortality ([5]; in vivo, po): 0%
Percentage reductions in volume of gastric secretion [9]: 25%
Percentage reduction of sub-plantar oedema [3]: 40%

CCCCOc1ccc(C(=O)CCn2c(CN(CC)CC)nc3ccccc32)cc1 [72 727]
Percentage inhibition of bronchoconstriction ([4]; 100 mg/kg/i.d.): 100%

CCCCOc1ccc(C(=O)CCn2c(CN3CCOCC3)nc3ccccc32)cc1 [72 523]
Percentage mortality [5]: 0%
Percentage reductions in volume of gastric secretion [9]: 25%
Percentage reduction of number of painful stretchings [10]: 45%

CCN(CC)Cc1nc2ccccc2n1CCC(=O)c1ccc(OC)c(OC)c1.O=C(O)/C=C\C(=O)O [72 692]
Percentage augmentation of urinary elimination [11]: 70%
Percentage reduction of number of explorations in the escape enclosure [8]: 30%
Percentage augmentations of flow of isolated heart of a guinea-pig [7]: 60%

CN(C)Cc1nc2ccccc2n1CCC(=O)c1ccc(F)cc1.O=C(O)/C=C\C(=O)O [72 663]
Percentage reduction of number of explorations in the escape enclosure [8]: 30%
Percentage reduction of number of painful stretchings [10]: 60%

CCN(CC)Cc1nc2ccccc2n1CCC(=O)c1ccc(C)cc1C.O=C(O)/C=C\C(=O)O [72 736]
spasmolytic activity relative to papaverine [12]: equivalent spasmolytic actvity to that of papaverine
Percentage reduction of Shay ulcers [1]: 30%
augmentation in the number of excursions in the escape test [13]: 30%
Percentage inhibition of bronchoconstriction ([4]; 10 mg/kg/i.v.): 90%

CCN(CC)Cc1nc2ccccc2n1CCC(=O)c1ccc(C)cc1.O=C(O)/C=C\C(=O)O [72 574]
Percentage reduction of Shay ulcers [1]: 45%
Percentage reduction of number of painful stretchings [10]: 45%

COc1cc(C(=O)CCn2c(CN(C)C)nc3ccccc32)cc(OC)c1OC [72 534]
Percentage mortality [5]: 0%
Percentage inhibition of bronchoconstriction ([4]; 100 mg/kg/i.d.): 50%

COc1ccc(C(=O)CCn2c(CN3CCOCC3)nc3ccccc32)cc1OC [72 391]
Percentage reduction of number of explorations in the escape enclosure [8]: 50%
Percentage mortality [5]: 0%
Percentage reduction of number of painful stretchings [10]: 60%
Percentage inhibition of bronchoconstriction ([4]; 100 mg/kg/i.d.): 100%

COc1ccc(C(=O)CCn2c(CN(C)C)nc3ccccc32)cc1OC [72 490]
Percentage reduction of Shay ulcers [1]: 30%
Percentage augmentations of flow of isolated heart of a guinea-pig [7]: 140%

Reference: patent publication US3962256A, “2-Aminomethyl benzimidazole derivatives” (Delalande S.A., priority 1973, dated 1976)
